Where two headings read alike, the source gives them in different places.
Experiments:
5-HT1F receptor [1] = molecular target: T1, 5-HT1F receptor (Homo sapiens, UniProt P30939); assay: [3H]5-HT displacement binding to clonal 5-HT1F cell membranes (transfected Ltk- cells); parameters: The entire coding region of clone hl16a was cloned into the eukaryotic expression vector pcEXV-3; expressed in transfected cells; details: for affinity for 5-HT1F receptor in words: displacement of [3H]5-HT specific binding
T1 sequence (P30939 1-366): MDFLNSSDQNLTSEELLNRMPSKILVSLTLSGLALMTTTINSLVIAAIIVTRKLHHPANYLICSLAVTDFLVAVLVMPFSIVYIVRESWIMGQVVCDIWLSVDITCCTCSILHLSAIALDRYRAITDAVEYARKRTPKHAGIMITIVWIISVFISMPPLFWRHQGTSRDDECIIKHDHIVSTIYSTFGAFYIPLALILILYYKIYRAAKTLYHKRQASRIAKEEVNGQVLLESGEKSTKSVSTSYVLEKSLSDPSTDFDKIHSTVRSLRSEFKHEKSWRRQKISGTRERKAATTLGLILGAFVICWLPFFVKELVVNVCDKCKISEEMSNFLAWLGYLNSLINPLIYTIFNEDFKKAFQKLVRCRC
Description: Stable cell lines were obtained by cotransfection with the plasmid pcEXV-3 (containing the 5-HT1F receptor gene) and the plasmid pGCcos3neo (containing the aminoglycoside transferase gene) into Ltk^− cells or NIH3T3 cells using calcium phosphate (reagents obtained from Specialty Media, Lavellette, N.J.). The cells were grown in a controlled environment (37° C. 5% CO2) an monolayers in Dulbecco's modified Eagle medium (Gibco, Grand Island, N.Y.) containing 25 mM glucose and supplemented with 10% bovine calf serum, 100 U/ml penicillin G and 100 μg/ml streptomycin sulfate.
(§1) Membrane Preparation: Membranes were prepared from transfected Ltk^− cells which were grown to 100% confluency. The cells were washed twice with phosphate-buffered saline, scraped from the culture dishes into 5 ml of ice-cold phosphate-buffered saline, and centrifuged at 200×g for 5 min at 4°. The pellet was resuspended in 2.5 ml of ice-cold Tris buffer (20 mM Tris-HCl, pH 7.4 at 23°, 5 mM EDTA) and homogenized by a Wheaton tissue grinder. The lysate was subsequently centrifuged at 200×g for 5 min at 4° to pellet large fragments which were discarded. The supernatant was collected and centrifuged at 40,000×g for 20 min at 4°. The pellet resulting from this centrifugation was washed once in ice-cold Tris wash buffer and finally resuspended in a final buffer containing 50 mM Tris-HCl and 0.5 mM EDTA, pH 7.4 at 23°. Membrane preparations were kept on ice and utilized within two hours for the radioligand binding assays.
The binding profile of drugs in competition experiments was accomplished using 10-12 concentrations of compound. Incubation times were 30 min for both saturation and displacement studies based upon initial investigations which determined equilibrium binding conditions. […] Binding was initiated by the addition of 50 μl membrane homogenates (10-20 μg). […] All experiments were performed in triplicate.

5-HT1F receptor [2] = molecular target: T1, 5-HT1F receptor
Description: (§2) The antagonist Kb was estimated by method of Furchgott (32): Kb=(Dose of antagonist)/((E50 in the presence of antagonist/control E50) −1).
(§3) Transfected NIH3T3 cells (estimated Bmax from one point competition studies=486 fmol/mg of protein) were incubated in DMEM, 5 mM theophylline, 10 mM Hepes (4-[2-Hydroxyethyl]-1-piperazineethanesulfonic acid), 10 μM pargyline, for 20 minutes at 37° C., CO2. Drug dose-effect curves were then conducted by adding 6 different final concentrations of drug, followed immediately by the addition of forskolin (10 μM). Subsequently, the cells were incubated for an additional 10 minutes at 37° C., 5% CO2. The media was aspirated and the reaction terminated by the addition of 100 mM HCl. The plates were stored at 4° C. for 15 minutes and centrifuged for 5 minutes (500×g at 4° C.) to pellet cellular debris. Aliquots of the supernatant fraction were then stored at −20° C. prior to assessment of cAMP formation by radioimmunoassay (cAMP Radioimmunoassay kit, Advanced Magnetics, Cambridge, Mass.).

5-HT1E receptor = 5-HT1E receptor (Homo sapiens, UniProt P28566); details: U.S. Ser. No. 803,626; cited from earlier work
Sequence of 5-HT1E receptor (P28566 whole entry): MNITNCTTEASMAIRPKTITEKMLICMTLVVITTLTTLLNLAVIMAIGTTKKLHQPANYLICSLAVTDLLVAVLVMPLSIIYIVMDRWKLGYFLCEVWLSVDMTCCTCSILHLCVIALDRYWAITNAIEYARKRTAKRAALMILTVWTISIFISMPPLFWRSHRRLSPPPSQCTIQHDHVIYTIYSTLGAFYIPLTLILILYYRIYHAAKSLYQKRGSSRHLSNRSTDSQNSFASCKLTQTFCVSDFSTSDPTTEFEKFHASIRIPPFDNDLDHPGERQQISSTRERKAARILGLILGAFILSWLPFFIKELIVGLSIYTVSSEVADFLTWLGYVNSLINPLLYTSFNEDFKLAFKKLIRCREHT

5-HT1F receptor [3] = molecular target: T1, 5-HT1F receptor; assay: Coupling to PI turnover; format: cell-based; parameters: The entire coding region of clone hl16a was cloned into the eukaryotic expression vector pcEXV-3; expressed in transfected cells; details: dose of 10 μM
human 5-HT1F receptor = assay: Inhibition of [3H]5-HT specific binding by Gpp(NH)p (G-protein coupling); details: mean ± S.E.M., n=3
Description: as §1
The binding profile of drugs in competition experiments was accomplished using 10-12 concentrations of compound. Incubation times were 30 min for both saturation and displacement studies based upon initial investigations which determined equilibrium binding conditions. […] Binding was initiated by the addition of 50 μl membrane homogenates (10-20 μg). […] IC50 values were converted to K1 values using the Cheng-Prusoff equation (1973). All experiments were performed in triplicate.

dog saphenous vein = details: cited from earlier work
5-HT1F receptor [4] = molecular target: T1, 5-HT1F receptor; assay: cell-based
Description: as §2, §3

[5] = read-out: Ki (nM) for the inhibition of [3H]5-HT specific binding, 4.5-5.5 nM [3H]5-HT, 10-12 drug concentrations, Cheng-Prusoff from IC50, mean ± S.E.M. of 2-4 determinations
[6] = read-out: Ki (nM) for the inhibition of [3H]5-HT specific binding

Row | Structure (SMILES) | Ki (5-HT1F receptor [1]) [nM] | affinity for 5-HT1F receptor in words (5-HT1F receptor [1]) | further results
1 | c1ccc2c(N3CCNCC3)cccc2c1 [1-Napthylpiperazine] |  |  | Ki (5-HT1F receptor [1]; unit inferred, read-out: K1): 54 nM; EC50 (5-HT1F receptor [2]; read-out: EC50 for decrease in forskolin-stimulated cAMP production): 0.0045 ± 0.0002 µM
2 | Cc1[nH]c2ccc(O)cc2c1CCN [2-Methyl-5-HT] |  |  | Ki (5-HT1F receptor [1]; [5]): 413 ± 5.6 nM
3 | NCCc1c[nH]c2ccc(OCc3ccccc3)cc12 [5-Benzoxytryptamine] | 1490 |  | 
4 | NCCc1c[nH]c2ccc(C(N)=O)cc12 [5-CT, 5-carboxyamidotryptamine] |  | low affinity | affinity for 5-HT1F receptor in words (5-HT1F receptor [1]; listed as 5-carboxyamidotryptamine): significantly decreases the affinity; Ki (5-HT1F receptor [1]; [6]): 717 ± 71 nM; affinity for 5-HT1E receptor in words (5-HT1E receptor): low affinity
5 | NCCc1c[nH]c2ccc(F)cc12 [5-Fluorotryptamine] | 1810 |  | 
6 | NCCc1c[nH]c2ccc(O)cc12 [5-HT, 5-hydroxytryptamine] |  | highest affinity | coupling to PI turnover (5-HT1F receptor [3]): no evidence for coupling of this receptor to PI turnover was detected; maximum inhibition of cAMP production (5-HT1F receptor [2]; forskolin 10 μM): 67±5.4%
7 | COc1ccc2[nH]cc(CCN)c2c1 [5-MT, 5-methoxytryptamine] | 1120 | significantly decreases the affinity | 
8 | COc1ccc2[nH]cc(CCN(C)C)c2c1 [5-Methoxy-N,N-DMT, 5-methoxy-N,N-dimethyltryptamine] | 37.5 ± 1.5 | affinity much higher than the other 5-substituted tryptamine derivatives | 
9 | CCCN(CCC)C1CCc2cccc(O)c2C1 (stereo not shown) [8-OH-DPAT] |  | very poor affinity | Ki (5-HT1F receptor [1]; [6]): 1770 nM
10 | COc1cc(CC(C)N)c(OC)cc1I (stereo not shown) [DOI] |  | very poor affinity | Ki (5-HT1F receptor [1]; [6]): 1740 nM
11 | CCCN(CCC)CCc1c[nH]c2ccc(C(N)=O)cc12 [DP-5-CT] |  |  | Ki (5-HT1F receptor [1]; [6]): 1610 nM
12 | CN1C[C@H](C(=O)N[C@]2(C)O[C@@]3(O)[C@@H]4CCCN4C(=O)[C@H](Cc4ccccc4)N3C2=O)C[C@@H]2c3cccc4[nH]cc(c34)C[C@H]21 [Dihydroergotamine] | 276 ± 49 |  | 
13 | C[C@@H](CO)NC(=O)[C@@H]1C=C2c3cccc4[nH]cc(c34)C[C@H]2N(C)C1 [Ergonovine] | 31 ± 1.5 |  | 
14 | CN1C[C@H](C(=O)N[C@]2(C)O[C@@]3(O)[C@@H]4CCCN4C(=O)[C@H](Cc4ccccc4)N3C2=O)C=C2c3cccc4[nH]cc(c34)C[C@H]21 [Ergotamine] |  |  | Ki (5-HT1F receptor [1]; [5]): 171 ± 28 nM
15 | Nc1nc2c(ncn2[C@@H]2O[C@H](COP(=O)(O)OP(=O)(O)NP(=O)(O)O)[C@@H](O)[C@H]2O)c(=O)[nH]1 [Gpp(NH)p] |  |  | Imax of inhibition of [3H]5-HT specific binding (human 5-HT1F receptor): 55.6±3.2%
16 | COc1ccc2c3c([nH]c2c1)C(C)=NCC3 [Harmaline] | > 10000 |  | 
17 | O=C(c1ccc(F)cc1)C1CCN(CCn2c(=O)[nH]c3ccccc3c2=O)CC1 [Ketanserin] | > 10000 | very poor affinity | 
18 | COc1ccc2[nH]cc(CCNC(C)=O)c2c1 [Melatonin] | > 10000 |  | 
19 | CN1C[C@@H](NS(=O)(=O)N(C)C)C[C@@H]2c3cccc4c3c(cn4C)C[C@H]21 [Mesulergine] | > 10000 |  | 

Row | Structure (SMILES) | Ki (5-HT1F receptor [1]) [nM] | affinity for 5-HT1F receptor in words (5-HT1F receptor [1]) | further results
20 | CN1C[C@H](CNC(=O)OCc2ccccc2)C[C@@H]2c3cccc4c3c(cn4C)C[C@H]21 [Metergoline] |  |  | block of the effects of sumatriptan (dog saphenous vein): does not block the effects of sumatriptan; Ki (5-HT1F receptor [1]; [5]): 341 ± 71 nM
21 | CSc1ccc2c(c1)C(N1CCN(C)CC1)Cc1ccccc1S2 (stereo not shown) [Methiothepin] |  |  | Ki (5-HT1F receptor [1]; [5]): 652 ± 41 nM; blockade of functional 5-HT response (5-HT1F receptor [2]; 5-HT 1 μM, antagonist 10 μM): completely blocked; nature of antagonism (5-HT1F receptor [2]; FIG. 3, 5-HT curves with and without antagonist): surmountable; direct effect of compound on cAMP response (5-HT1F receptor [2]; compound alone): No direct effect; Kd (5-HT1F receptor [2]; read-out: apparent KD from dose shift of 5-HT concentration-effect curve, antagonist, method of Furchgott (FIG. 3)): 0.438 ± 0.014 µM
22 | CC[C@@H](CO)NC(=O)[C@@H]1C=C2c3cccc4[nH]cc(c34)C[C@H]2N(C)C1 [Methylergonovine] |  | high affinity | Ki (5-HT1F receptor [1]; [5]): 31 ± 11 nM
23 | CC[C@@H](CO)NC(=O)[C@@H]1C=C2c3cccc4c3c(cn4C)C[C@H]2N(C)C1 [Methysergide] |  | high affinity | Ki (5-HT1F receptor [1]; [6]): 34 ± 4.9 nM
24 | COc1ccccc1N1CCN(CCCCN2C(=O)c3ccccc3C2=O)CC1 [NAN 190] |  |  | Ki (5-HT1F receptor [1]; [5]): 203 ± 13 nM
25 | CC(C)NCC(O)COc1cccc2[nH]ccc12 (stereo not shown) [Pindolol] | > 10000 | very poor affinity | 
26 | CC(C)NCC(O)COc1cccc2ccccc12 (stereo not shown) [Propanolol] | 8710 |  | 
27 | c1ccc2nc(N3CCNCC3)ccc2c1 [Quipanzine] |  |  | Ki (5-HT1F receptor [1]; [6]): 4670 nM
28 | Cc1nc2sccn2c(=O)c1CCN1CCC(=C(c2ccc(F)cc2)c2ccc(F)cc2)CC1 [Ritanserin] | 3520 |  | 
29 | CN1CCc2cc(Cl)c(O)cc2[C@@H](c2ccccc2)C1 [SCH 23390] | 1490 |  | 
30 | O=C(CCCN1CCC2(CC1)C(=O)NCN2c1ccccc1)c1ccc(F)cc1 [Spiperone] | > 10000 | very poor affinity | 
31 | FC(F)(F)c1cccc(N2CCNCC2)c1 [TFMPP] |  |  | Ki (5-HT1F receptor [1]; [5]): 1000 nM
32 | NCCc1c[nH]c2ccccc12 [Tryptamine] |  | significantly decreases the affinity | Ki (5-HT1F receptor [1]; [6]): 2410 nM
33 | COC(=O)[C@@H]1[C@H]2C[C@H]3c4[nH]c5ccccc5c4CCN3C[C@@H]2CC[C@@H]1O [Yohimbine] |  | fair affinity | Ki (5-HT1F receptor [1]; [6]): 92 ± 11 nM
34 | COc1cc(N)c(Cl)cc1C(=O)NC1CN2CCC1CC2 (stereo not shown) [Zacopride] | > 10000 | very poor affinity | 
35 | CN1C[C@H](CO)C=C2c3cccc4[nH]cc(c34)C[C@H]21 [lysergol] |  |  | EC50 (5-HT1F receptor [4]): 0.0088 ± 0.0043 µM
36 | Clc1cccc(N2CCNCC2)c1 [mCPP] |  |  | Ki (5-HT1F receptor [1]; [6]): 2020 nM
37 | COC(=O)[C@H]1[C@H]2C[C@H]3c4[nH]c5ccccc5c4CCN3C[C@H]2CC[C@@H]1O [rauwolscine] |  | fair affinity | 
38 | CC(N)Cc1c[nH]c2ccc(O)cc12 (stereo not drawn) [α-Methyl-5-HT] | 184 ± 35 |  | 

Source: US6406859B1 (Synaptic Pharmaceutical Corporation, priority 1992, dated 2002)
